± gives the expanded uncertainty stated by the source.
Test: xn = mol fraction of the nth substance listed
Conditions: 101 kPa, Liquid; for mass density: Vibrating tube method

## CCCC[n+]1ccccc1.F[B-](F)(F)F [1-butylpyridinium tetrafluoroborate] + CO
293.15 K, x1 = 0.0478
  mass density: 878.25 ± 0.34 kg/m3
  kinematic viscosity: 1.08e-06 ± 1.6e-08 m2/s
293.15 K, x1 = 0.0959
  mass density: 940.74 ± 0.29 kg/m3
  kinematic viscosity: 1.55e-06 ± 2.3e-08 m2/s
293.15 K, x1 = 0.1952
  mass density: 1026.08 ± 0.25 kg/m3
  kinematic viscosity: 2.79e-06 ± 4e-08 m2/s
293.15 K, x1 = 0.2938
  mass density: 1080.36 ± 0.24 kg/m3
  kinematic viscosity: 4.62e-06 ± 6.6e-08 m2/s
293.15 K, x1 = 0.3916
  mass density: 1117.45 ± 0.25 kg/m3
  kinematic viscosity: 7.4e-06 ± 1e-07 m2/s
293.15 K, x1 = 0.4921
  mass density: 1145.14 ± 0.26 kg/m3
  kinematic viscosity: 1.19e-05 ± 1.6e-07 m2/s
293.15 K, x1 = 0.5949
  mass density: 1166.53 ± 0.29 kg/m3
  kinematic viscosity: 2e-05 ± 2.6e-07 m2/s
293.15 K, x1 = 0.6989
  mass density: 1183.41 ± 0.31 kg/m3
  kinematic viscosity: 3.26e-05 ± 4.3e-07 m2/s
293.15 K, x1 = 0.7972
  mass density: 1196.34 ± 0.35 kg/m3
  kinematic viscosity: 5.32e-05 ± 5.9e-07 m2/s
293.15 K, x1 = 0.8478
  mass density: 1202.15 ± 0.36 kg/m3
  kinematic viscosity: 7.2e-05 ± 1.1e-06 m2/s
293.15 K, x1 = 0.8978
  mass density: 1207.4 ± 0.38 kg/m3
  kinematic viscosity: 9.63e-05 ± 2.2e-06 m2/s
293.15 K, x1 = 0.9471
  mass density: 1212.3 ± 0.4 kg/m3
  kinematic viscosity: 0.00013 ± 4.3e-06 m2/s
303.15 K, x1 = 0.0478
  mass density: 869.29 ± 0.34 kg/m3
  kinematic viscosity: 8.99e-07 ± 1.4e-08 m2/s
303.15 K, x1 = 0.0959
  mass density: 931.43 ± 0.29 kg/m3
  kinematic viscosity: 1.27e-06 ± 1.9e-08 m2/s
303.15 K, x1 = 0.1952
  mass density: 1017.92 ± 0.25 kg/m3
  kinematic viscosity: 2.21e-06 ± 3.2e-08 m2/s
303.15 K, x1 = 0.2938
  mass density: 1072.63 ± 0.24 kg/m3
  kinematic viscosity: 3.53e-06 ± 5.1e-08 m2/s
303.15 K, x1 = 0.3916
  mass density: 1109.94 ± 0.25 kg/m3
  kinematic viscosity: 5.61e-06 ± 7.9e-08 m2/s
303.15 K, x1 = 0.4921
  mass density: 1137.76 ± 0.26 kg/m3
  kinematic viscosity: 8.77e-06 ± 1.2e-07 m2/s
303.15 K, x1 = 0.5949
  mass density: 1159.2 ± 0.28 kg/m3
  kinematic viscosity: 1.4e-05 ± 1.9e-07 m2/s
303.15 K, x1 = 0.6989
  mass density: 1176.16 ± 0.31 kg/m3
  kinematic viscosity: 2.22e-05 ± 2.9e-07 m2/s
303.15 K, x1 = 0.7972
  mass density: 1189.23 ± 0.34 kg/m3
  kinematic viscosity: 3.4e-05 ± 4.5e-07 m2/s
303.15 K, x1 = 0.8478
  mass density: 1195.1 ± 0.36 kg/m3
  kinematic viscosity: 4.49e-05 ± 6e-07 m2/s
303.15 K, x1 = 0.8978
  mass density: 1200.46 ± 0.38 kg/m3
  kinematic viscosity: 5.72e-05 ± 6.8e-07 m2/s
303.15 K, x1 = 0.9471
  mass density: 1205.38 ± 0.4 kg/m3
  kinematic viscosity: 7.39e-05 ± 1.2e-06 m2/s
313.15 K, x1 = 0.0478
  mass density: 860.54 ± 0.34 kg/m3
  kinematic viscosity: 7.44e-07 ± 1.2e-08 m2/s
313.15 K, x1 = 0.0959
  mass density: 923.47 ± 0.29 kg/m3
  kinematic viscosity: 1.03e-06 ± 1.6e-08 m2/s
313.15 K, x1 = 0.1952
  mass density: 1010.59 ± 0.25 kg/m3
  kinematic viscosity: 1.75e-06 ± 2.6e-08 m2/s
313.15 K, x1 = 0.2938
  mass density: 1065.38 ± 0.24 kg/m3
  kinematic viscosity: 2.73e-06 ± 4e-08 m2/s
313.15 K, x1 = 0.3916
  mass density: 1102.7 ± 0.25 kg/m3
  kinematic viscosity: 4.29e-06 ± 6.2e-08 m2/s
313.15 K, x1 = 0.4921
  mass density: 1130.52 ± 0.26 kg/m3
  kinematic viscosity: 6.56e-06 ± 9.2e-08 m2/s
313.15 K, x1 = 0.5949
  mass density: 1152.11 ± 0.28 kg/m3
  kinematic viscosity: 1.03e-05 ± 1.4e-07 m2/s
313.15 K, x1 = 0.6989
  mass density: 1169.22 ± 0.31 kg/m3
  kinematic viscosity: 1.56e-05 ± 2.1e-07 m2/s
313.15 K, x1 = 0.7972
  mass density: 1182.46 ± 0.34 kg/m3
  kinematic viscosity: 2.31e-05 ± 3.1e-07 m2/s
313.15 K, x1 = 0.8478
  mass density: 1188.42 ± 0.36 kg/m3
  kinematic viscosity: 2.97e-05 ± 4e-07 m2/s
313.15 K, x1 = 0.8978
  mass density: 1193.84 ± 0.37 kg/m3
  kinematic viscosity: 3.68e-05 ± 4.9e-07 m2/s
313.15 K, x1 = 0.9471
  mass density: 1198.8 ± 0.39 kg/m3
  kinematic viscosity: 4.61e-05 ± 6.2e-07 m2/s
323.15 K, x1 = 0.0478
  mass density: 852.41 ± 0.35 kg/m3
  kinematic viscosity: 6.21e-07 ± 9.9e-09 m2/s
323.15 K, x1 = 0.0959
  mass density: 916 ± 0.3 kg/m3
  kinematic viscosity: 8.64e-07 ± 1.3e-08 m2/s
323.15 K, x1 = 0.1952
  mass density: 1003.55 ± 0.27 kg/m3
  kinematic viscosity: 1.44e-06 ± 2.1e-08 m2/s
323.15 K, x1 = 0.2938
  mass density: 1058.43 ± 0.25 kg/m3
  kinematic viscosity: 2.2e-06 ± 3.2e-08 m2/s
323.15 K, x1 = 0.3916
  mass density: 1095.78 ± 0.25 kg/m3
  kinematic viscosity: 3.41e-06 ± 4.9e-08 m2/s
323.15 K, x1 = 0.4921
  mass density: 1123.61 ± 0.26 kg/m3
  kinematic viscosity: 5.13e-06 ± 7.4e-08 m2/s
323.15 K, x1 = 0.5949
  mass density: 1145.11 ± 0.28 kg/m3
  kinematic viscosity: 7.68e-06 ± 1.1e-07 m2/s
323.15 K, x1 = 0.6989
  mass density: 1162.18 ± 0.31 kg/m3
  kinematic viscosity: 1.16e-05 ± 1.6e-07 m2/s
323.15 K, x1 = 0.7972
  mass density: 1175.36 ± 0.34 kg/m3
  kinematic viscosity: 1.65e-05 ± 2.2e-07 m2/s
323.15 K, x1 = 0.8478
  mass density: 1181.32 ± 0.35 kg/m3
  kinematic viscosity: 2.07e-05 ± 2.8e-07 m2/s
323.15 K, x1 = 0.8978
  mass density: 1186.75 ± 0.37 kg/m3
  kinematic viscosity: 2.51e-05 ± 3.4e-07 m2/s
323.15 K, x1 = 0.9471
  mass density: 1191.71 ± 0.39 kg/m3
  kinematic viscosity: 3.06e-05 ± 4.1e-07 m2/s

— the NIST ThermoML archive (doi:10.1021/je300557g)
